# Data: patent US11938098B2, “Method for killing HIV-infected cells using Bcl-2 inhibitors” (Mayo Foundation for Medical Education and Research, priority 2015, dated 2024)
# Legend:
# [1] = test system: Jurkat T cells stably expressing eGFP; experiment: Apoptosis and marker loss in Jurkat T cells stably expressing eGFP treated with CPT; format: cell-based
# Experimental: FIGS. 12A-12G. Apoptotic cell death is associated with loss of protein and mRNA markers. Jurkat T cells stably expressing eGFP were treated with DMSO or CPT and assessed for cell viability by ATP content (FIG. 12A) and light scatter (FIG. 12B) over time. FIG. 12C, Expression of eGFP was measured by flow cytometry. FIG. 12D, Actin mRNA expression was assessed by qRT-PCR and expressed as mean Ct values normalized to baseline DMSO control. FIGS. 12E-12G, Cell death was assessed by active-caspase 3 expression (FIG. 12E), TUNEL (FIG. 12F), and LIVE/DEAD viability stain (FIG. 12G) and compared between eGFP positive and eGFP negative cells. FIG. 12A-12D values represent mean (range) of two independent experiments. FIGS. 12E-12G are representative of two independent experiments.
# If BCL-2 neutralizes Casp8p41, then antagonizing BCL-2 should augment Casp8p41-induced killing, including when Casp8p41 is generated by latently HIV infected cells that reactivate the virus. Before testing this possibility, whether select markers (protein or nucleic acid based) remain detectable was first assessed when the cell of interest is undergoing death. Jurkat T cells stably expressing eGFP were treated with vehicle control or the cytotoxic quinolone alkaloid CPT to induce apoptosis, then examined for expression of eGFP (as a prototypic cytoplasmic protein) and actin mRNA (as a prototypic mRNA) over time.
# Jurkat T cells = experiment: TUNEL cell death in Jurkat T cells transfected with EGFP-Casp8p41, vector control or no DNA; format: cell-based; details: Jurkat cells expressing eGFP-Casp8p41, 1 μM
# Experimental: HEK 293T cells were transfected using Lipofectamine (Invitrogen, Carlsbad, Calif.) according to manufacturer's protocol. Jurkat cells were transfected using a square wave electroporator (BXT, San Diego, Calif.) at 320 V. Immunophenotyping of T cell subsets was performed using multicolor flow cytometry with monoclonal antibodies to human CD3 (Alexa700, BD Pharmingen), CD4 (FITC, BD Pharmingen), CD8 (Pacific Blue, BD Pharmingen), CD27 (PE, BD Pharmingen), and CD45RO (ECD, Beckman Coulter). Central memory T cells (TCM) were defined as CD3^+CD4^+CD27^+CD45RO^+, and effector memory T cells (TEM) were defined as CD3^+CD4^+CD27^−CD45RO^+/− (Brenchley et al., J. Exp. Med., 200:749-759 (2004)). Intracellular expression of Casp8p41 was assessed as described elsewhere (Cummins et al., AIDS Res. Hum. Retroviruses, 30:476-479 (2014)). Cell death was measured using LIVE/DEAD® Fixable Aqua dead cell stain (Invitrogen) or TUNEL (Roche) according to manufacturers' protocols. Cell proliferation was measured using a CellTrace™ CFSE Cell Proliferation Kit (Life Technologies) according to manufacturer's protocol. FACS analysis was performed on either a FACScan or LSRII flow cytometer (BD Biosciences) based on multiparameter needs. FACS data were analyzed using FlowJo software (Tree Star Inc).
# [2] = test system: Primary CD4 T cells from uninfected donors; experiment: Viability of primary uninfected CD4 T cells by flow cytometry; format: cell-based, human; details: N=7, 1 μM, Day 5
# From the text: (§1) Jurkat cells and HEK 293T cells were obtained from American Type Culture Collection (Manassas, Va.). Jurkat/Bcl-2 cells were created by transfecting Jurkat with a pcDNA-3 encoding Bcl-2 (obtained from Dr. Stan Korsmeyer), selecting for 30 days, and assessing Bcl-2 expression by immunoblotting. HIV-uninfected PBMCs were harvested by ficoll gradient centrifugation from Leukocyte Reduction System apheresis chambers provided by healthy volunteer blood donors. […]
# (§2) Immunophenotyping of T cell subsets was performed using multicolor flow cytometry with monoclonal antibodies to human CD3 (Alexa700, BD Pharmingen), CD4 (FITC, BD Pharmingen), CD8 (Pacific Blue, BD Pharmingen), CD27 (PE, BD Pharmingen), and CD45RO (ECD, Beckman Coulter). […] Intracellular expression of Casp8p41 was assessed as described elsewhere (Cummins et al., AIDS Res. Hum. Retroviruses, 30:476-479 (2014)). Cell death was measured using LIVE/DEAD® Fixable Aqua dead cell stain (Invitrogen) or TUNEL (Roche) according to manufacturers' protocols. Cell proliferation was measured using a CellTrace™ CFSE Cell Proliferation Kit (Life Technologies) according to manufacturer's protocol. […] FACS data were analyzed using FlowJo software (Tree Star Inc).
# [3] = test system: Primary CD4 T cells from uninfected donors; experiment: Mitogen-induced proliferation of uninfected CD4 T cells by CFSE staining; format: cell-based, human; details: phytohemagglutinin, 1 μM, Day 3
# From the text: as §1, §2
# [4] = test system: Primary CD4 T cells from ART-suppressed HIV positive patients; experiment: Viability by trypan blue exclusion of CD4 T cells from ART-suppressed HIV positive patients; format: cell-based, human; details: bulk primary CD4 T cells from HIV infected ART suppressed patients; 1 μM; 24 hours
# Experimental: FIGS. 11A-11D. […] FIG. 11A, Jurkat T cells pretreated with increasing concentrations of venetoclax or diluent DMSO were transfected with EGFP-Casp8p41, vector control, or no DNA, and assayed for cell death by TUNEL. Data are representative of three independent experiments. FIG. 11B, Primary CD4 T cells from seven uninfected donors were treated with venetoclax (1 μM) or diluent, and assayed for cell viability by flow cytometry over 5 days. FIG. 11C, Primary CD4 T cells from four uninfected donors were stimulated with phytohemagglutinin (2 μg/mL) in the presence of venetoclax (1 μM) or diluent and assayed for proliferation by CFSE staining. FIG. 11D, Primary CD4 T cells from seven ART-suppressed HIV positive patients were treated with venetoclax (1 μM) or DMSO control for 24 hours and assessed for viability by trypan blue exclusion.
# HIV-1IIIb = experiment: Acute HIVIIIb infection of primary CD4 T cells in vitro (viability, p24, cell associated HIV DNA); format: cell-based
# From the text: as §1
# as §2, with “Inc). […]” for “Inc).”
# [5] = test system: latently HIV infected CD4 T cells; experiment: Ex vivo HIV reactivation (αCD3/αCD28) in CD4 T cells from suppressed HIV-infected patients; format: cell-based, human
# Experimental: FIGS. 10A-10E. Selective Bcl-2 inhibition reduces HIV DNA associated with cells after viral reactivation ex vivo. […] After 72 hours, cell associated HIV DNA was measured. FIG. 10B, Freshly obtained peripheral CD4 T cells from an additional 16 suppressed HIV-infected patients were treated with ABT-199 or DMSO followed by αCD3/αCD28 for 72 hours before cell associated HIV DNA was measured. Depicted is the ratio of HIV DNA in ABT-199 treated vs. diluent treated samples for each patient with measurable HIV DNA in the diluent sample (n=11). FIG. 10C, Primary CD4 T cells from HIV-infected subjects were treated with ABT-199 or diluent and assayed for intracellular Casp8p41 and active caspase 3 in the TCM subset. Representative data of three independent subjects. FIG. 10D, Primary CD4 T cells from four HIV-infected subjects were treated with venetoclax or diluent and induced to reactivate HIV using CD3/CD28, and cell death measured in HIV P24 positive or negative cells using activated caspase 3 staining. FIG. 10E, HIV RNA was measured in cell culture supernatant from 6 of the 11 patient experiments from FIG. 10B.
# Jurkat and Jurkat/Bcl-2 cells were infected overnight, while primary PHA-activated CD4 T cells were infected for 6 hours with HIV-1IIIb (NIH AIDS Reagent Program). Aliquots of the same infectious supernatant were used for all experiments. Cells were then washed three times and incubated in fresh medium. At the indicated time points, HIV-1 p24 in the cell culture supernatant was measured by RETROTEK™ ELISA kits (Zeptometrix Corporation) according to manufacturer's protocol. […] Briefly, total DNA was extracted using the Qiagen DNeasy Blood and Tissue kit (Hilden, Germany) and analyzed by a real-time polymerase chain reaction (PCR) assay specific for HIV-LTR and β-globin. […] Total HIV-1 DNA was compared and normalized with genomic DNA, determined by β-globin. HIV-1 proviral DNA levels were expressed as HIV-1 copies/β-globin genomic equivalent of 10^6 cells.
# [6] = in vivo; cited from earlier work
# [7] = cited from earlier work
# Bcl-2 = experiment: SPR binding of Casp8p41 to purified recombinant Bcl-2; details: Bcl-2 Arg146Ala vs Bcl-2, SPR
# Experimental: After plasmids encoding GST tagged proteins were transformed into E. coli BL21 or DH5α by heat shock, bacteria were grown to an optical density of 0.8 and induced with 1 mM IPTG for 3 hours at 37° C. Bacteria were disrupted by freezing and thawing in calcium- and magnesium-free Dulbecco's phosphate buffered saline (PBS) containing 0.1% Triton X-100, 2 μg/mL aprotinin, 10 μg/mL leupeptin, 2 μg/mL pepstatin, and 1 mM PMSF, then sonicated three times for 15 sec/min on ice. GST-tagged proteins were purified with glutathione-agarose (Thermo Fisher Scientific, Rockford, Ill.).
# Proteins for SPR were further purified by FPLC on Superdex 5200, concentrated in a centrifugal concentrator (Centricon, Millipore), dialyzed against Biacore buffer (10 mM HEPES (pH 7.4), 150 mM NaCl, 0.05 mM EDTA, and 0.005% (w/v) Polysorbate 20) and stored at 4° C. for <48 hours before use. Binding assays were performed at 25° C. on a Biacore 3000 biosensor after proteins were immobilized on a CMS chip (GE Healthcare). Ligands were injected at 30 μL/minute for 1 minute in Biacore buffer. Bound protein was allowed to dissociate in Biacore buffer at 30 μL/minute for 10 minutes and then desorbed with 2 M MgCl2. Binding kinetics were derived using BIA evaluation software (Biacore, Uppsala, Sweden).
compound,measurement,setting,value
"CC[C@@]1(O)C(=O)OCc2c1cc1n(c2=O)Cc2cc3ccccc3nc2-1 [CPT, camptothecin]",eGFP negative cells,[1]; by 48 hours,97%
same,cell viability by cellular ATP content and light scatter,[1]; compared to diluent-treated cells,decreased cell viability
same,reduction of detectable actin message compared to diluent control,[1]; qRT-PCR,34%
same,detectable eGFP (eGFP+ cells),[1]; {},17 % eGFP+
CC1(C)CCC(CN2CCN(c3ccc(C(=O)NS(=O)(=O)c4ccc(NCC5CCOCC5)c([N+](=O)[O-])c4)c(Oc4cnc5[nH]ccc5c4)c3)CC2)=C(c2ccc(Cl)cc2)C1 [venetoclax],"increase in cell death, mean difference vs diluent",Jurkat T cells,25.7±10.3%
same,"viability, mean difference vs control treated cells",[2],−7.2±4.8%
same,mean difference in percent CFSE low cells,[3],-1.1±7.9%
same,"viability, mean difference vs DMSO control",[4],−4.7±1.6 % viable
same,survival or mitogen-induced proliferation of mock-infected CD4 T cells,HIV-1IIIb,had no effect
same,samples exhibiting a decrease of cell associated HIV DNA,"[5]; freshly isolated primary CD4 T cell samples, 8 of 11",73%
same,median cell death (active caspase 3) in p24− cells,"[5]; αCD3/αCD28 reactivated, control 2.5%, P=0.189",10.3%
same,proportion of HIV p24+ CD4+ cells that are active caspase 3+,"[5]; αCD3/αCD28 reactivated, control 23%, P=0.026",47 % active caspase 3+
same,peak plasma levels,[6],up to 5 μM
same,cases of dose limiting neutropenia,[7]; 40 NHL patients receiving monotherapy,2 cases
same,tolerability in early phase clinical trials,"[7]; human, in vivo",well tolerated
DMNLLDIFIEMEKRVILGEGKLDILKRVCAQ (Casp8p41 BH3-like peptide) [Casp8p41 activator peptide],decrease of affinity of Bcl-2 by substitution of Ala for Bcl-2 Arg146,Bcl-2,250 fold
